pIC50: −log10 of the molar value.
Assays:
Topoisomerase I [1] = molecular target: T1, Topoisomerase I (Homo sapiens, UniProt P11387); assay: Topo I relaxation assay; assay type: biochemical; settings: unit not given; compound at 1, 10, 25 and 50 μM in protocol
T1 sequence (P11387 1-765): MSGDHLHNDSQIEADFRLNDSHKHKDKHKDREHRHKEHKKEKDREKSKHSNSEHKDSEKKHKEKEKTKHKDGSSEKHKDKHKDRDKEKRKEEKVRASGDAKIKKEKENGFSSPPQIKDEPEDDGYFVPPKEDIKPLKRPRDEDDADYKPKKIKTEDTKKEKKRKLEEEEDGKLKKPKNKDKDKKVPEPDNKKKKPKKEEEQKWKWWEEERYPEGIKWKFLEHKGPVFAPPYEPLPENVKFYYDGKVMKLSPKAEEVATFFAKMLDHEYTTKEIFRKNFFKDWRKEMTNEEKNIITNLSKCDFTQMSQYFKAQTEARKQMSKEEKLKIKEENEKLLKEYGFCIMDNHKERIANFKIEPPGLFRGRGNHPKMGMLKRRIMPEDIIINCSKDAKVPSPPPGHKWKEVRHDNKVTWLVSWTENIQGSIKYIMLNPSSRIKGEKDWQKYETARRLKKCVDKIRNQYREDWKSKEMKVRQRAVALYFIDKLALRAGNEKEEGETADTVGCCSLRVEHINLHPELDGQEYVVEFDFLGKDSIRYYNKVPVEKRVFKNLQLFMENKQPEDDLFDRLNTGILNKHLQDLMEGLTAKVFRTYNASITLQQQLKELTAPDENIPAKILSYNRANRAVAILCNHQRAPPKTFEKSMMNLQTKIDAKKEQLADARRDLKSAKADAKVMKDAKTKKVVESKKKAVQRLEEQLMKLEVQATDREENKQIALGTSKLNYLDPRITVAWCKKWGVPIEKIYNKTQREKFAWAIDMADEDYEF
Text: Topo I Relaxation Assay Protocol.

[2] = system: MAC 15A adenocarcinoma of the colon; assay: In vitro chemosensitivity against MAC 15A adenocarcinoma (MTT assay); assay type: cell-based; settings: Mus musculus, MAC15A, 96 hours continuous exposure
[3] = In vitro cytotoxicity against CHO cell lines (MTT assay); assay type: cell-based; settings: Chinese hamster, MTT assay after 24 hours exposure
Experimental: Chinese Hamster Ovary (CHO) cell lines were grown as monolayers in Ham's F-10 nutrient mixture supplemented with 5% foetal calf serum and 5% heat-inactivated newborn calf serum. All experiments were performed on cells within 10 passages of each other, during which period phenotypes remained stable. All anthraquinone/amino acid conjugates were dissolved in water and not more than 0.01% DMSO. Activity was determined by an MTT assay after 24 hours exposure using essentially the method of Plumb et al (Plumb, J., Milroy, R and Kaye, S. B., 1989, Effects of the pH dependence of 3-([…])-2,5-diphenyl tetrazolium bromide formazan absorption on chemosensitivity, Cancer Research, 49: 4435-4440). Characteristics of the cell lines are described in full in Cummings et al 1996, Biochem.Pharmacol. 52: 979-990.

Topoisomerase I [4] = molecular target: T1, Topoisomerase I; assay: Topo I cleavage assay; assay type: biochemical; settings: for TopI Cleave: unit not given, compound at 1, 10, 25 and 50 μM in protocol
Topoisomerase IIα = Topoisomerase IIα (Homo sapiens, UniProt P11388); assay: Topo II decatenation assay; assay type: biochemical; parameters: key: ‘—’ = Not active; settings: unit not given; kDNA substrate; compound at 1, 10, 25 and 50 μM in protocol
Experimental: Topisomerase Decatenation Assay.
This method uses catenated DNA substrate prepared from the kinetoplast of the insect trypanosome Crithidia fasciculata. Upon incubation with topo II, which engages DNA in a double stranded breakage-reunion cycle, DNA minicircles are released. Addition of topo-inhibiting drugs may prevent decatenation.
Topo II Decatenation Assay Protocol
This assay is the same as the Topo II Relaxation assay except that the pBR 322 Plasmid DNA is replaced with kDNA.
Results are included in Table 3 below

Topoisomerase IIβ = Topoisomerase IIβ (Homo sapiens, UniProt Q02880); assay: Topo II cleavage assay; assay type: biochemical; settings: unit not given; compound at 1, 10, 25 and 50 μM in protocol
Experimental: Topo II 5 μl (1-1 μg); […] Results are included in Table 3 below.

Sequence of Topoisomerase IIβ (Q02880 whole entry): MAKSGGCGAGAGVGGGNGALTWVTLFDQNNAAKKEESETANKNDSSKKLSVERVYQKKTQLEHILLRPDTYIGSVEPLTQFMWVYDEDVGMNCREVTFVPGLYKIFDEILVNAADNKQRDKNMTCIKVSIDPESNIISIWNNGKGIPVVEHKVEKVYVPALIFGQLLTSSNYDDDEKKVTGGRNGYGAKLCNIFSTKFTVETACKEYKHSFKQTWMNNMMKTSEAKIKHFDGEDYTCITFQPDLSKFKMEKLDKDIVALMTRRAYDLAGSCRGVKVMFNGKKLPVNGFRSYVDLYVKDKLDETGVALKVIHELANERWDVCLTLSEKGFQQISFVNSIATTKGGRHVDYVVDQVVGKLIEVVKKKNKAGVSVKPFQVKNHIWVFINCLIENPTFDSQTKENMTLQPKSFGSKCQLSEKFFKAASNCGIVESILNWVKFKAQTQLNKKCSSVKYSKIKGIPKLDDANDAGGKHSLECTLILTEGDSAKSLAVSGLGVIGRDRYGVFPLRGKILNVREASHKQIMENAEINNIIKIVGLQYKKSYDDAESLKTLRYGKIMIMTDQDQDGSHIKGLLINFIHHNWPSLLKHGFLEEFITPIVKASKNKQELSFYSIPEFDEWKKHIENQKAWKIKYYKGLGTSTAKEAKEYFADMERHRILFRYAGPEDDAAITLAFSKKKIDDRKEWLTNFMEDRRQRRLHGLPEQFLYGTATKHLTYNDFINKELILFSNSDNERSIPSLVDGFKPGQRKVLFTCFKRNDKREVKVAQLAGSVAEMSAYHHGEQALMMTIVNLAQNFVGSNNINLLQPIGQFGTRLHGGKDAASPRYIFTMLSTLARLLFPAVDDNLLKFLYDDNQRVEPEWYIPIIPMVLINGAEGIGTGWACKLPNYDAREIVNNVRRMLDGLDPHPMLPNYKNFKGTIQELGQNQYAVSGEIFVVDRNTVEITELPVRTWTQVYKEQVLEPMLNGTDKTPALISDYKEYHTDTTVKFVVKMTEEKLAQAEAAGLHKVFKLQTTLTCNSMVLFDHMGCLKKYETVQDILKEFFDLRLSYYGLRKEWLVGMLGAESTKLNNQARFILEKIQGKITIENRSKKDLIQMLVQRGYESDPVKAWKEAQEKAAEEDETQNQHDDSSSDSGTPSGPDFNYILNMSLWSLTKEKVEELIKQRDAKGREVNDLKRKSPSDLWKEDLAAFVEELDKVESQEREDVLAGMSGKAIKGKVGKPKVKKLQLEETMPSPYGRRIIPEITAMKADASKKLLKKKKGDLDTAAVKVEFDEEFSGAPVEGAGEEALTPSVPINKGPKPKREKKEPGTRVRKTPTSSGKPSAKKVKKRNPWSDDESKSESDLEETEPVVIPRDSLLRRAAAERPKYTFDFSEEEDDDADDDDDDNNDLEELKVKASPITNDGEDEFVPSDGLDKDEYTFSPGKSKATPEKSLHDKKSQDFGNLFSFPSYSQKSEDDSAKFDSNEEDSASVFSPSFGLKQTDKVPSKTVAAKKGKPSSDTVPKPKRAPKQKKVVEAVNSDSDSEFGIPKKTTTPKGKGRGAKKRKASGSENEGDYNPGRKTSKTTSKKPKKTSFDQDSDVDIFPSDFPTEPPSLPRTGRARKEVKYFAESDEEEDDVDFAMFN
Sequence of Topoisomerase IIα (P11388 whole entry): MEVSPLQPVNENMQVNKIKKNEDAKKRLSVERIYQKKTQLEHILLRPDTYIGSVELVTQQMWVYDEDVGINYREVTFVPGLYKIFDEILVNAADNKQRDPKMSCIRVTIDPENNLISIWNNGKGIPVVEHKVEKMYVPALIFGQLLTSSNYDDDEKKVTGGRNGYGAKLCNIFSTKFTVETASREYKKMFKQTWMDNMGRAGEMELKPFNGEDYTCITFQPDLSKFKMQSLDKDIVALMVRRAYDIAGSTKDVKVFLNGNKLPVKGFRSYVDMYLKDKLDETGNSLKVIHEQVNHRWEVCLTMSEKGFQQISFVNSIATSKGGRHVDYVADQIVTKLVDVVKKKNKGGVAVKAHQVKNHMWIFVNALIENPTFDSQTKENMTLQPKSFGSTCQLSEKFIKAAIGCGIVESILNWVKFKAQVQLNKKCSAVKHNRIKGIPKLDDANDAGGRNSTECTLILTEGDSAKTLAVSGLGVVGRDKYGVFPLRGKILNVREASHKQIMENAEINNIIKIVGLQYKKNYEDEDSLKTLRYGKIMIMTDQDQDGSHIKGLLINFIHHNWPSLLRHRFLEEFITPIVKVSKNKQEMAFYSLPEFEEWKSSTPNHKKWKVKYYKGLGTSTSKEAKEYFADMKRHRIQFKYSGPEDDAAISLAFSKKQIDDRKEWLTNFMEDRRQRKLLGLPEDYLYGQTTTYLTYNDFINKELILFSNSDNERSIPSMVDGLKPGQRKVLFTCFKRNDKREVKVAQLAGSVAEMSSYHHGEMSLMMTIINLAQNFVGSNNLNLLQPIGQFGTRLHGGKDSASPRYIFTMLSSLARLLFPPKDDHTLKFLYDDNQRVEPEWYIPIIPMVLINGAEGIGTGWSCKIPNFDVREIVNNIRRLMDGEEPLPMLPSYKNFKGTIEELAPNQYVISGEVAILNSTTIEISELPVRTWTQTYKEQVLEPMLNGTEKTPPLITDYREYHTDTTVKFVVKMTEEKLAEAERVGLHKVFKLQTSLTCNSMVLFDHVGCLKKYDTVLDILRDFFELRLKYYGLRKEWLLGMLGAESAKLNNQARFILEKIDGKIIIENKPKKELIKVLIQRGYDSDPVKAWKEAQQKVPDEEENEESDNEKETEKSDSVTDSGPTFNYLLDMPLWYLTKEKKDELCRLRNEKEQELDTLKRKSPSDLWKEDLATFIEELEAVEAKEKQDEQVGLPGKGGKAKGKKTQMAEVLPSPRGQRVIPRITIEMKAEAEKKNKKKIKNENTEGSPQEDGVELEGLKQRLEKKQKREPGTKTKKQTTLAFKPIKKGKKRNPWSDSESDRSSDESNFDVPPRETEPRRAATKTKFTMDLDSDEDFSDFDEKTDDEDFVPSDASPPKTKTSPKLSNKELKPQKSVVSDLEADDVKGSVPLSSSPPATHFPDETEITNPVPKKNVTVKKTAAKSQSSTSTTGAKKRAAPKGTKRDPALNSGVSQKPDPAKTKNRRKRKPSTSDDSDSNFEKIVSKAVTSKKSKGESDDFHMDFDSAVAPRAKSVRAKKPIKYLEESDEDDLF

C[C@H](N)C(=O)OCCCCNc1cccc2c1C(=O)c1ccccc1C2=O.O=C(O)C(F)(F)F [Example 43, 1-[4-(L-alanyloxy)butylamino]anthracene-9,10-dione trifluoroacetate]
TopI Relax. (Topoisomerase I [1]): 25
pIC50 [2]: 5.59
IC50 at 24 h ([3]; CHO-ADR-1 cells, ADR line): 6.6 µM
IC50 at 24 h ([3]; CHO-ADR-r cells, ADR line): 25.2 µM
IC50 at 24 h ([3]; CHO-K1 cells): 54 µM
nicked DNA (Topoisomerase I [4]; at 100 μM): 20%
TopI Cleave (Topoisomerase I [4]): 100
TopIIα Decat. (Topoisomerase IIα): —
TopIIβ Cleave. (Topoisomerase IIβ): 25

C[C@@H](N)C(=O)OCCCCNc1cccc2c1C(=O)c1ccccc1C2=O.O=C(O)C(F)(F)F [Example 45, 1-[4-(D-alanyloxy)butylamino]anthracene-9,10-dione trifluoroacetate]
TopI Relax. (Topoisomerase I [1]): 25
pIC50 [2]: 5.54
IC50 at 24 h ([3]; CHO-ADR-1 cells, ADR line): 46.3 µM
IC50 at 24 h ([3]; CHO-ADR-r cells, ADR line): 31.5 µM
IC50 at 24 h ([3]; CHO-K1 cells): 40.5 µM
TopI Cleave (Topoisomerase I [4]): 300
TopIIα Decat. (Topoisomerase IIα): —
TopIIβ Cleave. (Topoisomerase IIβ): 20
